Experimental data as given in patent US9422297B2, “Tricyclic compounds having cytostatic and/or cytotoxic activity and methods of use thereof” (Duquesne University of the Holy Ghost, priority 2007, dated 2016).

Tests used:
Format in all cases: cell-based
SK-MEL-23 = experiment: NCI In-Vitro Testing, Melanoma
SK-OV-3 = experiment: NCI In-Vitro Testing, Ovarian Cancer
NCI-H460 = experiment: NCI In-Vitro Testing, Non-Small Cell Lung Cancer
RXF 399 = experiment: NCI In-Vitro Testing, Renal Cancer
SF-539 = experiment: NCI In-Vitro Testing, CNS Cancer
MDA-MB-231/ATCC = experiment: NCI In-Vitro Testing, Breast Cancer
EKVX = experiment: NCI In-Vitro Testing, Non-Small Cell Lung Cancer
UACC-257 = experiment: NCI In-Vitro Testing, Melanoma
DU-145 = experiment: NCI In-Vitro Testing, Prostate Cancer
NCI-H23 = experiment: NCI In-Vitro Testing, Non-Small Cell Lung Cancer
SNB-19 = experiment: NCI In-Vitro Testing, CNS Cancer
MCF7 = experiment: NCI In-Vitro Testing, Breast Cancer
KM12 = experiment: NCI In-Vitro Testing, Colon Cancer
MDA-MB-435 = experiment: NCI In-Vitro Testing, Breast Cancer
TK-10 = experiment: NCI In-Vitro Testing, Renal Cancer
SNB-75 = experiment: NCI In-Vitro Testing, CNS Cancer
UO-31 = experiment: NCI In-Vitro Testing, Renal Cancer
HL-60(TB) = experiment: NCI In-Vitro Testing, Leukemia

Nc1nc2c(c(Nc3ccc(Cl)cc3)n1)-c1ccccc1C2 [AAG145-136]
GI50 (SK-MEL-23): 1.51E−8 Molar
LC50 (SK-MEL-23): >1.00E−4 Molar
TGI (SK-MEL-23): >1.00E−4 Molar
Percent Growth (SK-MEL-23; Log10 Concentration −4.0 Molar): 41%
Percent Growth (SK-MEL-23; Log10 Concentration −5.0 Molar): 32%
Percent Growth (SK-MEL-23; Log10 Concentration −6.0 Molar): 54%
Percent Growth (SK-MEL-23; Log10 Concentration −7.0 Molar): 97%
Percent Growth (SK-MEL-23; Log10 Concentration −8.0 Molar): 105%
GI50 (SK-OV-3): 2.09E−6 Molar
LC50 (SK-OV-3): >1.00E−4 Molar
TGI (SK-OV-3): >1.00E−4 Molar
Percent Growth (SK-OV-3; Log10 Concentration −4.0 Molar): 16%
Percent Growth (SK-OV-3; Log10 Concentration −5.0 Molar): 36%
Percent Growth (SK-OV-3; Log10 Concentration −6.0 Molar): 57%
Percent Growth (SK-OV-3; Log10 Concentration −7.0 Molar): 97%
Percent Growth (SK-OV-3; Log10 Concentration −8.0 Molar): 106%
GI50 (NCI-H460): 1.93E−8 Molar
LC50 (NCI-H460): >1.00E−4 Molar
TGI (NCI-H460): >1.00E−4 Molar
Percent Growth (NCI-H460; Log10 Concentration −4.0 Molar): 3%
Percent Growth (NCI-H460; Log10 Concentration −5.0 Molar): 3%
Percent Growth (NCI-H460; Log10 Concentration −6.0 Molar): 15%
Percent Growth (NCI-H460; Log10 Concentration −7.0 Molar): 23%
Percent Growth (NCI-H460; Log10 Concentration −8.0 Molar): 61%
GI50 (RXF 399): 1.20E−5 Molar
LC50 (RXF 399): >1.00E−4 Molar
TGI (RXF 399): 6.26E−5 Molar
Percent Growth (RXF 399; Log10 Concentration −4.0 Molar): −14%
Percent Growth (RXF 399; Log10 Concentration −5.0 Molar): 56%
Percent Growth (RXF 399; Log10 Concentration −6.0 Molar): 91%
Percent Growth (RXF 399; Log10 Concentration −7.0 Molar): 107%
Percent Growth (RXF 399; Log10 Concentration −8.0 Molar): 108%
GI50 (SF-539): 3.81E−7 Molar
LC50 (SF-539): >1.00E−4 Molar
TGI (SF-539): >1.00E−4 Molar
Percent Growth (SF-539; Log10 Concentration −4.0 Molar): 2%
Percent Growth (SF-539; Log10 Concentration −5.0 Molar): 20%
Percent Growth (SF-539; Log10 Concentration −6.0 Molar): 31%
Percent Growth (SF-539; Log10 Concentration −7.0 Molar): 77%
Percent Growth (SF-539; Log10 Concentration −8.0 Molar): 101%
GI50 (MDA-MB-231/ATCC): 6.41E−7 Molar
LC50 (MDA-MB-231/ATCC): >1.00E−4 Molar
TGI (MDA-MB-231/ATCC): >1.00E−4 Molar
Percent Growth (MDA-MB-231/ATCC; Log10 Concentration −4.0 Molar): 30%
Percent Growth (MDA-MB-231/ATCC; Log10 Concentration −5.0 Molar): 29%
Percent Growth (MDA-MB-231/ATCC; Log10 Concentration −6.0 Molar): 45%
Percent Growth (MDA-MB-231/ATCC; Log10 Concentration −7.0 Molar): 70%
Percent Growth (MDA-MB-231/ATCC; Log10 Concentration −8.0 Molar): 92%
GI50 (EKVX): 2.71E−8 Molar
LC50 (EKVX): >1.00E−4 Molar
TGI (EKVX): >1.00E−4 Molar
Percent Growth (EKVX; Log10 Concentration −4.0 Molar): 4%
Percent Growth (EKVX; Log10 Concentration −5.0 Molar): 26%
Percent Growth (EKVX; Log10 Concentration −6.0 Molar): 68%
Percent Growth (EKVX; Log10 Concentration −7.0 Molar): 68%
Percent Growth (EKVX; Log10 Concentration −8.0 Molar): 101%
GI50 (UACC-257): 6.45E−8 Molar
LC50 (UACC-257): >1.00E−4 Molar
TGI (UACC-257): >1.00E−4 Molar
Percent Growth (UACC-257; Log10 Concentration −4.0 Molar): 6%
Percent Growth (UACC-257; Log10 Concentration −5.0 Molar): 21%
Percent Growth (UACC-257; Log10 Concentration −6.0 Molar): 33%
Percent Growth (UACC-257; Log10 Concentration −7.0 Molar): 46%
Percent Growth (UACC-257; Log10 Concentration −8.0 Molar): 102%
GI50 (DU-145): 2.12E−7 Molar
LC50 (DU-145): >1.00E−4 Molar
TGI (DU-145): >1.00E−4 Molar
Percent Growth (DU-145; Log10 Concentration −4.0 Molar): 7%
Percent Growth (DU-145; Log10 Concentration −5.0 Molar): 18%
Percent Growth (DU-145; Log10 Concentration −6.0 Molar): 37%
Percent Growth (DU-145; Log10 Concentration −7.0 Molar): 56%
Percent Growth (DU-145; Log10 Concentration −8.0 Molar): 95%
GI50 (NCI-H23): 5.55E−7 Molar
LC50 (NCI-H23): >1.00E−4 Molar
TGI (NCI-H23): >1.00E−4 Molar
Percent Growth (NCI-H23; Log10 Concentration −4.0 Molar): 16%
Percent Growth (NCI-H23; Log10 Concentration −5.0 Molar): 21%
Percent Growth (NCI-H23; Log10 Concentration −6.0 Molar): 37%
Percent Growth (NCI-H23; Log10 Concentration −7.0 Molar): 90%
Percent Growth (NCI-H23; Log10 Concentration −8.0 Molar): 86%
GI50 (SNB-19): 1.13E−7 Molar
LC50 (SNB-19): >1.00E−4 Molar
TGI (SNB-19): >1.00E−4 Molar
Percent Growth (SNB-19; Log10 Concentration −4.0 Molar): 6%
Percent Growth (SNB-19; Log10 Concentration −5.0 Molar): 17%
Percent Growth (SNB-19; Log10 Concentration −6.0 Molar): 28%
Percent Growth (SNB-19; Log10 Concentration −7.0 Molar): 51%
Percent Growth (SNB-19; Log10 Concentration −8.0 Molar): 100%
GI50 (MCF7): 7.34E−8 Molar
LC50 (MCF7): >1.00E−4 Molar
TGI (MCF7): 1.41E−5 Molar
Percent Growth (MCF7; Log10 Concentration −4.0 Molar): −26%
Percent Growth (MCF7; Log10 Concentration −5.0 Molar): 5%
Percent Growth (MCF7; Log10 Concentration −6.0 Molar): 17%
Percent Growth (MCF7; Log10 Concentration −7.0 Molar): 45%
Percent Growth (MCF7; Log10 Concentration −8.0 Molar): 63%
GI50 (KM12): 3.30E−7 Molar
LC50 (KM12): >1.00E−4 Molar
TGI (KM12): >1.00E−4 Molar
Percent Growth (KM12; Log10 Concentration −4.0 Molar): 5%
Percent Growth (KM12; Log10 Concentration −5.0 Molar): 7%
Percent Growth (KM12; Log10 Concentration −6.0 Molar): 25%
Percent Growth (KM12; Log10 Concentration −7.0 Molar): 77%
Percent Growth (KM12; Log10 Concentration −8.0 Molar): 98%
GI50 (MDA-MB-435): 5.54E−7 Molar
LC50 (MDA-MB-435): >1.00E−4 Molar
TGI (MDA-MB-435): >1.00E−4 Molar
Percent Growth (MDA-MB-435; Log10 Concentration −4.0 Molar): 33%
Percent Growth (MDA-MB-435; Log10 Concentration −5.0 Molar): 20%
Percent Growth (MDA-MB-435; Log10 Concentration −6.0 Molar): 31%
Percent Growth (MDA-MB-435; Log10 Concentration −7.0 Molar): 104%
Percent Growth (MDA-MB-435; Log10 Concentration −8.0 Molar): 104%
GI50 (TK-10): 2.15E−6 Molar
LC50 (TK-10): >1.00E−4 Molar
TGI (TK-10): >1.00E−4 Molar
Percent Growth (TK-10; Log10 Concentration −4.0 Molar): 27%
Percent Growth (TK-10; Log10 Concentration −5.0 Molar): 34%
Percent Growth (TK-10; Log10 Concentration −6.0 Molar): 58%
Percent Growth (TK-10; Log10 Concentration −7.0 Molar): 113%
Percent Growth (TK-10; Log10 Concentration −8.0 Molar): 110%
GI50 (SNB-75): 5.03E−6 Molar
LC50 (SNB-75): >1.00E−4 Molar
TGI (SNB-75): 6.44E−5 Molar
Percent Growth (SNB-75; Log10 Concentration −4.0 Molar): −10%
Percent Growth (SNB-75; Log10 Concentration −5.0 Molar): 41%
Percent Growth (SNB-75; Log10 Concentration −6.0 Molar): 71%
Percent Growth (SNB-75; Log10 Concentration −7.0 Molar): 92%
Percent Growth (SNB-75; Log10 Concentration −8.0 Molar): 95%
GI50 (UO-31): 7.90E−7 Molar
LC50 (UO-31): >1.00E−4 Molar
TGI (UO-31): >1.00E−4 Molar
Percent Growth (UO-31; Log10 Concentration −4.0 Molar): 31%
Percent Growth (UO-31; Log10 Concentration −5.0 Molar): 31%
Percent Growth (UO-31; Log10 Concentration −6.0 Molar): 46%
Percent Growth (UO-31; Log10 Concentration −7.0 Molar): 88%
Percent Growth (UO-31; Log10 Concentration −8.0 Molar): 105%
GI50 (HL-60(TB)): 1.50E−7 Molar
LC50 (HL-60(TB)): >1.00E−4 Molar
TGI (HL-60(TB)): >1.00E−4 Molar
Percent Growth (HL-60(TB); Log10 Concentration −4.0 Molar): 12%
Percent Growth (HL-60(TB); Log10 Concentration −5.0 Molar): 13%
Percent Growth (HL-60(TB); Log10 Concentration −6.0 Molar): 23%
Percent Growth (HL-60(TB); Log10 Concentration −7.0 Molar): 56%
Percent Growth (HL-60(TB); Log10 Concentration −8.0 Molar): 87%
